Assays:
Format in all cases: cell-based, mice
[1] = system: NO; assay: NO production by LPS-stimulated macrophages; details: 10 μM, 72 h
[2] = system: IL-6; assay: IL-6 production by LPS-stimulated macrophages; details: 10 μM, 72 h
Protocol: (§1) Peritoneal macrophage or splenocytes (lymphocytes and macrophage) were harvested from donor mice using standard techniques. Cells were placed in culture and stimulated with either LPS (10 μg/mL) or concanavalin A 5 μg/mL (Sigma Chemical Co., St Louis, Mo.) in RPMI-1640 medium supplemented with antibiotics, […] 2-mercaptoethanol, 10 mm HEPES buffer and 10% fetal calf serum (FCS) (see Holan et al., 1985) to stimulate macrophage and T-cells respectively. Compounds were added from DMSO stock solutions to a final concentration of 50 μM or less with DMSO not exceeding 1% of total volume. After 72 h, cell supernatant was recovered and the cytokine levels were estimated by ELISA. The effect of compounds on cytokine production was recorded as follows: […]

[3] = system: IL-10; assay: IL-10 production by LPS-stimulated murine peritoneal macrophage (ELISA); details: for IL-10 by ELISA, % of solvent treated control: murine peritoneal macrophage; for IL-10 (LPS, Macrophages), amount of cytokine: 10 μM, 72 h
Protocol: as §1

[4] = system: IL-2; assay: IL-2 production by ConA-stimulated T cells; details: 10 μM, 72 h
Protocol: as §1

[5] = system: IFN-g; assay: IFN-g production by ConA-stimulated T cells; details: 10 μM, 72 h
Protocol: as §1

[6] = system: IL-10; assay: IL-10 production by ConA-stimulated T cells; details: 10 μM, 72 h
Protocol: as §1

[7] = system: T cells; assay: Proliferation of Con A-stimulated T cells; details: 10 μM
Protocol: as §1

[8] = system: B cells; assay: Proliferation of LPS-stimulated B cells; details: 10 μM

Structure (SMILES)	NO (LPS, Macrophages), % of control treated with solvent alone [1]	IL-6 (LPS, Macrophages), amount of cytokine [2]	IL-10 by ELISA, % of solvent treated control ([3]; 2 μM inhibitor in medium)	IL-10 by ELISA, % of solvent treated control ([3]; 10 μM inhibitor in medium)	IL-10 (LPS, Macrophages), amount of cytokine [3]	IL-10 by ELISA, % of solvent treated control ([3]; 50 μM inhibitor in medium)	IL-2 (ConA, T cells), amount of cytokine [4]	IFN-g (ConA, T cells), amount of cytokine [5]	IL-10 (ConA, T cells), amount of cytokine [6]	Proliferation (Con A, T cells) [7]	Proliferation (LPS, B cells) [8]	IL-10 by ELISA, % of solvent treated control ([3]; 1.25 μM inhibitor in medium)	IL-10 by ELISA, % of solvent treated control ([3]; 5 μM inhibitor in medium)	IL-10 by ELISA, % of solvent treated control ([3]; 20 μM inhibitor in medium)
CC[C@H]1OC(=O)[C@H](C)[C@@H](O[C@H]2C[C@@](C)(OC)[C@@H](O)[C@H](C)O2)[C@H](C)[C@@H](O[C@@H]2O[C@H](C)C[C@H](N(C)CCCCCC(=O)OCCSc3nc(-c4ccc(F)cc4)c(-c4ccnc(NC(C)C)c4)[nH]3)[C@H]2O)[C@](C)(O)C[C@@H](C)CN(C)[C@H](C)[C@@H](O)[C@]1(C)O [Compound 43k]	−1 % of control treated with solvent alone	22 % of control treated with solvent alone	−6 % of solvent treated control	−8 % of solvent treated control	−8 % of control treated with solvent alone	−9 % of solvent treated control	0 % of control treated with solvent alone	0 % of control treated with solvent alone	0 % of control treated with solvent alone	−1 % of control treated with solvent alone	−8 % of control treated with solvent alone	–	–	–
CCC1OC(=O)C(C)C(OC2CC(C)(OC)C(O)C(C)O2)C(C)C(OC2OC(C)CC(N(C)CCCC(=O)OCC3CO3)C2O)C(C)(O)CC(C)CN(C)C(C)C(O)C1(C)O (centres unmarked) [Compound 29]	–	–	–	–	–	–	–	–	–	–	–	110 % of solvent treated control	114 % of solvent treated control	106 % of solvent treated control
CC[C@H]1OC(=O)[C@H](C)[C@@H](O[C@H]2C[C@@](C)(OC)[C@@H](O)[C@H](C)O2)[C@H](C)[C@@H](O[C@@H]2O[C@H](C)C[C@H](N(C)CCCC(=O)OCC(O)CSc3nc(-c4ccc(F)cc4)c(-c4ccnc(NC(C)C(C)C)c4)[nH]3)[C@H]2O)[C@](C)(O)C[C@@H](C)CN(C)[C@H](C)[C@@H](O)[C@]1(C)O (some centres unmarked) [Compound 43a]	1 % of control treated with solvent alone	15 % of control treated with solvent alone	16 % of solvent treated control	2 % of solvent treated control	2 % of control treated with solvent alone	5 % of solvent treated control	0 % of control treated with solvent alone	3 % of control treated with solvent alone	0 % of control treated with solvent alone	0 % of control treated with solvent alone	2 % of control treated with solvent alone	–	–	–
CC[C@H]1OC(=O)[C@H](C)[C@@H](O[C@H]2C[C@@](C)(OC)[C@@H](O)[C@H](C)O2)[C@H](C)[C@@H](O[C@@H]2O[C@H](C)C[C@H](N(C)CCCC(=O)OCC(O)CSc3nc(-c4ccc(F)cc4)c(-c4ccnc(NC(C)C)c4)[nH]3)[C@H]2O)[C@](C)(O)C[C@@H](C)CN(C)[C@H](C)[C@@H](O)[C@]1(C)O (some centres unmarked) [Compound 43f]	2 % of control treated with solvent alone	30 % of control treated with solvent alone	−1 % of solvent treated control	−10 % of solvent treated control	−10 % of control treated with solvent alone	27 % of solvent treated control	-1 % of control treated with solvent alone	61 % of control treated with solvent alone	0 % of control treated with solvent alone	−8 % of control treated with solvent alone	−6 % of control treated with solvent alone	–	–	–
CCC(C)Nc1cc(-c2[nH]c(SCC(O)COC(=O)CCCN(C)[C@H]3C[C@@H](C)O[C@@H](O[C@@H]4[C@@H](C)[C@H](O)[C@@H](C)C(=O)O[C@H](CC)[C@@](C)(O)[C@H](O)[C@@H](C)N(C)C[C@H](C)C[C@@]4(C)O)[C@@H]3O)nc2-c2ccc(F)cc2)ccn1 (some centres unmarked) [Compound 43e]	1 % of control treated with solvent alone	29 % of control treated with solvent alone	−4 % of solvent treated control	−4 % of solvent treated control	−4 % of control treated with solvent alone	−4 % of solvent treated control	0 % of control treated with solvent alone	0 % of control treated with solvent alone	−2 % of control treated with solvent alone	−1 % of control treated with solvent alone	−3 % of control treated with solvent alone	–	–	–
CC[C@H]1OC(=O)[C@H](C)[C@@H](O[C@H]2C[C@@](C)(OC)[C@@H](O)[C@H](C)O2)[C@H](C)[C@@H](O[C@@H]2O[C@H](C)C[C@H](N(C)CCCC(=O)OCC(O)CSc3nc(-c4ccc(F)cc4)c(-c4ccnc(NC5CCOCC5)c4)[nH]3)[C@H]2O)[C@](C)(O)C[C@@H](C)CN(C)[C@H](C)[C@@H](O)[C@]1(C)O (some centres unmarked) [Compound 43b]	31 % of control treated with solvent alone	94 % of control treated with solvent alone	27 % of solvent treated control	−4 % of solvent treated control	−4 % of control treated with solvent alone	−4 % of solvent treated control	0 % of control treated with solvent alone	0 % of control treated with solvent alone	−2 % of control treated with solvent alone	−2 % of control treated with solvent alone	−3 % of control treated with solvent alone	–	–	–
CC[C@H]1OC(=O)[C@H](C)[C@@H](O)[C@H](C)[C@@H](O[C@@H]2O[C@H](C)C[C@H](N(C)CCCC(=O)OCC(O)CSc3nc(-c4ccc(F)cc4)c(-c4ccnc(NC5CCOCC5)c4)[nH]3)[C@H]2O)[C@](C)(O)C[C@@H](C)CN(C)[C@H](C)[C@@H](O)[C@]1(C)O (some centres unmarked) [Compound 43c]	82 % of control treated with solvent alone	95 % of control treated with solvent alone	18 % of solvent treated control	7 % of solvent treated control	7 % of control treated with solvent alone	−4 % of solvent treated control	90 % of control treated with solvent alone	72 % of control treated with solvent alone	25 % of control treated with solvent alone	113 % of control treated with solvent alone	2 % of control treated with solvent alone	–	–	–
CCC1OC(=O)C(C)C(OC2CC(C)(OC)C(O)C(C)O2)C(C)C(OC2OC(C)CC(N(C)CCCCCC(=O)OCCO)C2O)C(C)(O)CC(C)CN(C)C(C)C(O)C1(C)O (centres unmarked) [Compound 36]	100 % of control treated with solvent alone	91 % of control treated with solvent alone	88 % of solvent treated control	116 % of solvent treated control	116 % of control treated with solvent alone	0 % of solvent treated control	96 % of control treated with solvent alone	99 % of control treated with solvent alone	79 % of control treated with solvent alone	199 % of control treated with solvent alone	3 % of control treated with solvent alone	–	–	–
CCOC(=O)CCCN(C)C1CC(C)OC(OC2C(C)C(OC3CC(C)(OC)C(O)C(C)O3)C(C)C(=O)OC(CC)C(C)(O)C(O)C(C)N(C)CC(C)CC2(C)O)C1O (centres unmarked) [Compound 27, 4-({2-[2-Ethyl-3,4,10-trihydroxy-13-(5-hydroxy-4-methoxy-4,6-dimethyl-tetrahydro-pyran-2-yloxy)-3,5,6,8,10,12,14-heptamethyl-15-oxo-1-oxa-6-aza-cyclopentadec-11-yloxy]-3-hydroxy-6-methyl-tetrahydro-pyran-4-yl}-methyl-amino)-butyric acid ethyl ester]	–	–	–	–	–	–	–	–	–	–	–	132 % of solvent treated control	106 % of solvent treated control	17 % of solvent treated control

— patent publication US9617221B2, “Kinase modulators for the treatment of cancer” (Synovo GmbH, priority 2010, dated 2017)
